According to ChEMBL document CHEMBL5137093, “Improving Drug Delivery While Tailoring Prodrug Activation to Modulate Cmax and Cmin by Optimization of (Carbonyl)oxyalkyl Linker-Based Prodrugs of Atazanavir” (J Med Chem, 2022):

Legend:
[1] = Aqueous solubility of compound at pH 4 by UPLC analysis; format: physicochemical; settings: aqueous medium, read-out: solubility
[2] = Aqueous solubility of compound at pH 6.5 by UPLC analysis; format: physicochemical; settings: aqueous medium, read-out: solubility
[3] = Cmax in Sprague-Dawley rat at 3 mg/kg,po measured upto 24 hrs by UPLC-MS/MS analysis; format: ADME, organism-based; parameters: dose 3 mg/kg, time < 24 hrs, route po; settings: in vivo
[4] = Tmax in Sprague-Dawley rat at 3 mg/kg,po measured upto 24 hrs by UPLC-MS/MS analysis; format: ADME, organism-based; settings: in vivo
[5] = AUClast in Sprague-Dawley rat at 3 mg/kg,po measured upto 24 hrs by UPLC-MS/MS analysis; format: ADME, organism-based; parameters: time < 24 hrs, dose 3 mg/kg, route po; settings: in vivo
[6] = Cmax in Sprague-Dawley rat at 30 mg/kg,po measured upto 24 hrs by UPLC-MS/MS analysis; format: ADME, organism-based; parameters: time < 24 hrs, dose 30 mg/kg, route po; settings: in vivo
[7] = Tmax in Sprague-Dawley rat at 30 mg/kg,po measured upto 24 hrs by UPLC-MS/MS analysis; format: ADME, organism-based; settings: in vivo
[8] = AUClast in Sprague-Dawley rat at 30 mg/kg,po measured upto 24 hrs by UPLC-MS/MS analysis; format: ADME, organism-based; parameters: time < 24 hrs, dose 30 mg/kg, route po; settings: in vivo
[9] = Ratio of Cmax/Cmin in Sprague-Dawley rat at 3 mg/kg,po measured after 24 hrs by UPLC-MS/MS analysis; format: ADME, organism-based; settings: in vivo
[10] = Ratio of Cmax/Cmin in Sprague-Dawley rat at 1 mg/kg,iv measured after 24 hrs by UPLC-MS/MS analysis; format: ADME, organism-based; settings: in vivo
[11] = Cmax in Sprague-Dawley rat at 1 mg/kg,iv measured upto 24 hrs by UPLC-MS/MS analysis; format: ADME, organism-based; parameters: dose 1 mg/kg, time < 24 hrs, route iv; settings: in vivo
[12] = AUClast in Sprague-Dawley rat at 1 mg/kg,iv measured upto 24 hrs by UPLC-MS/MS analysis; format: ADME, organism-based; parameters: time < 24 hrs, dose 1 mg/kg, route iv; settings: in vivo
[13] = Cmin in Sprague-Dawley rat at 1 mg/kg,iv measured after 24 hrs by UPLC-MS/MS analysis; format: ADME, organism-based; settings: in vivo, read-out: Cmin
[14] = Clearance in Sprague-Dawley rat at 1 mg/kg,iv measured upto 24 hrs by UPLC-MS/MS analysis; format: ADME, organism-based; settings: in vivo
[15] = Half life in Sprague-Dawley rat at 1 mg/kg,iv measured upto 24 hrs by UPLC-MS/MS analysis; format: ADME, organism-based; settings: in vivo
[16] = Volume of distribution at steady state in Sprague-Dawley rat at 1 mg/kg,iv measured upto 24 hrs by UPLC-MS/MS analysis; format: ADME, organism-based; settings: in vivo, read-out: Vdss
[17] = target: Voltage-gated inwardly rectifying potassium channel KCNH2 (Homo sapiens, UniProt Q12809); assay: Inhibition of human ERG by patch-clamp assay; format: toxicity
Voltage-gated inwardly rectifying potassium channel KCNH2, sequence (Q12809 whole entry): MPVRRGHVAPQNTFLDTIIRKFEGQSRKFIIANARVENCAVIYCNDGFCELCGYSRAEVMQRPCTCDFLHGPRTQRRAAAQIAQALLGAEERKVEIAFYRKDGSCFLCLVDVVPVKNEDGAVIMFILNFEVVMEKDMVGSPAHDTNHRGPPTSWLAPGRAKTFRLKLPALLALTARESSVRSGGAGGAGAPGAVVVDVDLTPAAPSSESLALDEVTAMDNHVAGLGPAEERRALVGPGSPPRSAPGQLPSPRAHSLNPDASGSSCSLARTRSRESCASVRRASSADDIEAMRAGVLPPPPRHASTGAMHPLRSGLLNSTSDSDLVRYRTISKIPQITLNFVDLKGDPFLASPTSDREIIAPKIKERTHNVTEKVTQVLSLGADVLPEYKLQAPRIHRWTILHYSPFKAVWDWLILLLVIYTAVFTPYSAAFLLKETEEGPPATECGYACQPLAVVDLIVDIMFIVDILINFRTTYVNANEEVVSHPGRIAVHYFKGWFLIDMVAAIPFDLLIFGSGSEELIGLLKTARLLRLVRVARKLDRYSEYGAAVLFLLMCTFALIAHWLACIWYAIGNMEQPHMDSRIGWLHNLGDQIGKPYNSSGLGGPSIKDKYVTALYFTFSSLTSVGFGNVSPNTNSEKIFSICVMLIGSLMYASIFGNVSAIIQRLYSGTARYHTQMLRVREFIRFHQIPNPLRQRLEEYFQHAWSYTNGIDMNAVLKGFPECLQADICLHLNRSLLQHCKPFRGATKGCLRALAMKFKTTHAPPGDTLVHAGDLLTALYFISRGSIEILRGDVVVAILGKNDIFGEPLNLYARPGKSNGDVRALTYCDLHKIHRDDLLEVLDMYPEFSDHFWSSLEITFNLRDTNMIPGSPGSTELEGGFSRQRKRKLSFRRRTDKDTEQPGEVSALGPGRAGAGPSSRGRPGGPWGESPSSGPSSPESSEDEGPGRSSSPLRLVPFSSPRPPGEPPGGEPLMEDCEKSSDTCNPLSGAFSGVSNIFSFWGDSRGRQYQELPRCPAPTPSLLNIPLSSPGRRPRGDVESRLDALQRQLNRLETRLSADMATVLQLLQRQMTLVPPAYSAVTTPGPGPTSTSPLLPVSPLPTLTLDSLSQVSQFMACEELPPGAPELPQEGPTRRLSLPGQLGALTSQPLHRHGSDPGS

solubility [1]: < 1 µg/mL
solubility [2]: < 1 µg/mL
Cmax [3]: 266 nM
Tmax [4]: 0.5 h
AUC(0-t) at 24 h [5]: 0.384 µM·h
Cmax [6]: 5110 nM
Tmax [7]: 3 h
AUC(0-t) at 24 h [8]: 20.9 µM·h
Ratio [9]: 1064
Ratio [10]: 8978.6
Cmax [11]: 2510 nM
AUC(0-t) at 24 h [12]: 0.636 µM·h
concentration at 24 h [13]: 0.28 nM
clearance [14]: 38.7 mL/min/kg
half-life [15]: 7 h
Vd [16]: 1.5 L/kg
Structure (SMILES): COC(=O)N[C@H](C(=O)N[C@@H](Cc1ccccc1)[C@@H](O)CN(Cc1ccc(-c2ccccn2)cc1)NC(=O)[C@@H](NC(=O)OC)C(C)(C)C)C(C)(C)C [ATAZANAVIR]
IC50 [17]: ≥ 30 µM
